Experimental data published in ChEMBL document CHEMBL4507258 (2021).

What was measured:
[1] = molecular target: Serine/threonine-protein kinase B-raf (Homo sapiens) (UniProt P15056); settings: Compound concentration 1000.0 nM
[2] = molecular target: Dual specificity tyrosine-phosphorylation-regulated kinase 1A (Homo sapiens) (UniProt Q13627); settings: Compound concentration 1000.0 nM
[3] = molecular target: 5-hydroxytryptamine receptor 1B (Homo sapiens) (UniProt P28222); settings: Compound concentration 10.0 uM
[4] = molecular target: Focal adhesion kinase 1 (Homo sapiens) (UniProt Q05397); settings: Compound concentration 1000.0 nM
[5] = molecular target: Serine/threonine-protein kinase MAK (Homo sapiens) (UniProt P20794); settings: Compound concentration 1000.0 nM
[6] = molecular target: RAF proto-oncogene serine/threonine-protein kinase (Homo sapiens) (UniProt P04049); settings: Compound concentration 1000.0 nM
[7] = molecular target: Serine/threonine-protein kinase VRK2 (Homo sapiens) (UniProt Q86Y07); settings: Compound concentration 1000.0 nM
[8] = molecular target: Mitogen-activated protein kinase kinase kinase 20 (Homo sapiens) (UniProt Q9NYL2); settings: Compound concentration 1000.0 nM
[9] = molecular target: Death-associated protein kinase 3 (Homo sapiens, UniProt O43293); settings: Compound concentration 1000.0 nM
[10] = molecular target: Serine/threonine-protein kinase WNK3 (Homo sapiens) (UniProt Q9BYP7); settings: Compound concentration 1000.0 nM
[11] = molecular target: Serine/threonine-protein kinase Nek6 (Homo sapiens) (UniProt Q9HC98); settings: Compound concentration 1000.0 nM
[12] = molecular target: Phosphatidylinositol 4-phosphate 5-kinase type-1 alpha (Homo sapiens) (UniProt Q99755); settings: Compound concentration 1000.0 nM
[13] = molecular target: Macrophage colony-stimulating factor 1 receptor (Homo sapiens) (UniProt P07333); settings: Compound concentration 1000.0 nM
[14] = molecular target: Serine/threonine-protein kinase SIK3 (Homo sapiens) (UniProt Q9Y2K2); settings: Compound concentration 1000.0 nM
[15] = molecular target: Ribosomal protein S6 kinase alpha-5 (Homo sapiens) (UniProt O75582); settings: Compound concentration 1000.0 nM
[16] = molecular target: Myosin-IIIb (Homo sapiens) (UniProt Q8WXR4); settings: Compound concentration 1000.0 nM
[17] = molecular target: Serine/threonine-protein kinase PAK 5 (Homo sapiens) (UniProt Q9P286); settings: Compound concentration 1000.0 nM
[18] = molecular target: Wee1-like protein kinase (Homo sapiens) (UniProt P30291); settings: Compound concentration 1000.0 nM
[19] = molecular target: SRSF protein kinase 3 (Homo sapiens) (UniProt Q9UPE1); settings: Compound concentration 1000.0 nM
[20] = molecular target: Phosphatidylinositol 3-kinase C2 domain-containing subunit gamma (Homo sapiens) (UniProt O75747); settings: Compound concentration 1000.0 nM
[21] = molecular target: Tyrosine-protein kinase receptor TYRO3 (Homo sapiens) (UniProt Q06418); settings: Compound concentration 1000.0 nM
[22] = molecular target: Serine/threonine-protein kinase D2 (Homo sapiens) (UniProt Q9BZL6); settings: Compound concentration 1000.0 nM
[23] = molecular target: Serine/threonine-protein kinase PRP4 homolog (Homo sapiens) (UniProt Q13523); settings: Compound concentration 1000.0 nM
[24] = molecular target: Serine/threonine-protein kinase OSR1 (Homo sapiens) (UniProt O95747); settings: Compound concentration 1000.0 nM
[25] = molecular target: Serine/threonine-protein kinase TAO2 (Homo sapiens) (UniProt Q9UL54); settings: Compound concentration 1000.0 nM
[26] = molecular target: Peripheral plasma membrane protein CASK (Homo sapiens) (UniProt O14936); settings: Compound concentration 1000.0 nM
[27] = molecular target: RAC-beta serine/threonine-protein kinase (Homo sapiens) (UniProt P31751); settings: Compound concentration 1000.0 nM
[28] = molecular target: Mast/stem cell growth factor receptor Kit (Homo sapiens) (UniProt P10721); settings: Compound concentration 1000.0 nM
[29] = molecular target: Serine/threonine-protein kinase LATS1 (Homo sapiens) (UniProt O95835); settings: Compound concentration 1000.0 nM
[30] = molecular target: Protein-tyrosine kinase 2-beta (Homo sapiens) (UniProt Q14289); settings: Compound concentration 1000.0 nM
[31] = molecular target: Serine/threonine-protein kinase Nek1 (Homo sapiens) (UniProt Q96PY6); settings: Compound concentration 1000.0 nM
[32] = molecular target: Mitogen-activated protein kinase 1 (Homo sapiens) (UniProt P28482); settings: Compound concentration 1000.0 nM
[33] = molecular target: Cyclin-dependent kinase 2 homolog (Plasmodium falciparum (isolate 3D7)) (UniProt P61075); settings: Compound concentration 1000.0 nM
[34] = tested on: Tyrosine-protein kinase ABL1 (Homo sapiens), P00519 [T315I]; settings: Compound concentration 1000.0 nM
[35] = molecular target: 5-hydroxytryptamine receptor 2A (Homo sapiens) (UniProt P28223); settings: Compound concentration 10.0 uM
[36] = molecular target: Cyclin-dependent kinase 11A (Homo sapiens) (UniProt Q9UQ88); settings: Compound concentration 1000.0 nM
[37] = molecular target: Tyrosine-protein kinase ABL2 (Homo sapiens) (UniProt P42684); settings: Compound concentration 1000.0 nM
[38] = molecular target: Sigma intracellular receptor 2 (Homo sapiens) (UniProt Q5BJF2); settings: Compound concentration 10.0 uM
[39] = molecular target: Dual specificity protein kinase CLK3 (Homo sapiens) (UniProt P49761); settings: Compound concentration 1000.0 nM
[40] = molecular target: Serine/threonine-protein kinase MRCK alpha (Homo sapiens) (UniProt Q5VT25); settings: Compound concentration 1000.0 nM
[41] = molecular target: Homeodomain-interacting protein kinase 1 (Homo sapiens) (UniProt Q86Z02); settings: Compound concentration 1000.0 nM
[42] = molecular target: 5'-AMP-activated protein kinase catalytic subunit alpha-1 (Homo sapiens) (UniProt Q13131); settings: Compound concentration 1000.0 nM
[43] = molecular target: Dual specificity mitogen-activated protein kinase kinase 3 (Homo sapiens) (UniProt P46734); settings: Compound concentration 1000.0 nM
[44] = molecular target: Ribosomal protein S6 kinase beta-1 (Homo sapiens) (UniProt P23443); settings: Compound concentration 1000.0 nM
[45] = molecular target: Cyclin-dependent kinase 14 (Homo sapiens) (UniProt O94921); settings: Compound concentration 1000.0 nM

Mast/stem cell growth factor receptor Kit (Homo sapiens), sequence (P10721 whole entry): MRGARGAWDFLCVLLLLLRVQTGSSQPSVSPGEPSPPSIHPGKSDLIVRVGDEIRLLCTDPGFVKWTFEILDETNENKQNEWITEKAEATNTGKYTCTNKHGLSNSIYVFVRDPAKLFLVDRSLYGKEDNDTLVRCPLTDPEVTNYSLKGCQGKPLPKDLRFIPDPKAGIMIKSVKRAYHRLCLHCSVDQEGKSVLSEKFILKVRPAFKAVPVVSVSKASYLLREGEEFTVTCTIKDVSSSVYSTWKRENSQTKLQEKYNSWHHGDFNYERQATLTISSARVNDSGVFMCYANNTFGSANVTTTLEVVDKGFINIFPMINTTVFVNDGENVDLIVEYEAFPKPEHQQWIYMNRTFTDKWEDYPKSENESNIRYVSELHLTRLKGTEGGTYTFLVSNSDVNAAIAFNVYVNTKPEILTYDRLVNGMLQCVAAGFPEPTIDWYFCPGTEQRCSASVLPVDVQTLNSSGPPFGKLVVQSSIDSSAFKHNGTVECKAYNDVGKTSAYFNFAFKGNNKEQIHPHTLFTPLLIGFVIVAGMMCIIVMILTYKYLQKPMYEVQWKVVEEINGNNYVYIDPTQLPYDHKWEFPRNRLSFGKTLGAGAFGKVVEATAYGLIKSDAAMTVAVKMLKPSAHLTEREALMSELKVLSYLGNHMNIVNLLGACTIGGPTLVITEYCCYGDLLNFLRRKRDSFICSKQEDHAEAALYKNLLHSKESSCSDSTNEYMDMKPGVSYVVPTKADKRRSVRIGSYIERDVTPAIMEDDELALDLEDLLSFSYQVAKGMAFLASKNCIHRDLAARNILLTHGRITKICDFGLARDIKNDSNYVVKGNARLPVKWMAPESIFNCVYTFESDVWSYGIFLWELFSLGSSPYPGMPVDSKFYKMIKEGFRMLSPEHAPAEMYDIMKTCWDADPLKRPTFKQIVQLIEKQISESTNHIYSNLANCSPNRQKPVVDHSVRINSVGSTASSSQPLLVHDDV
Serine/threonine-protein kinase LATS1 (Homo sapiens), sequence (O95835 whole entry): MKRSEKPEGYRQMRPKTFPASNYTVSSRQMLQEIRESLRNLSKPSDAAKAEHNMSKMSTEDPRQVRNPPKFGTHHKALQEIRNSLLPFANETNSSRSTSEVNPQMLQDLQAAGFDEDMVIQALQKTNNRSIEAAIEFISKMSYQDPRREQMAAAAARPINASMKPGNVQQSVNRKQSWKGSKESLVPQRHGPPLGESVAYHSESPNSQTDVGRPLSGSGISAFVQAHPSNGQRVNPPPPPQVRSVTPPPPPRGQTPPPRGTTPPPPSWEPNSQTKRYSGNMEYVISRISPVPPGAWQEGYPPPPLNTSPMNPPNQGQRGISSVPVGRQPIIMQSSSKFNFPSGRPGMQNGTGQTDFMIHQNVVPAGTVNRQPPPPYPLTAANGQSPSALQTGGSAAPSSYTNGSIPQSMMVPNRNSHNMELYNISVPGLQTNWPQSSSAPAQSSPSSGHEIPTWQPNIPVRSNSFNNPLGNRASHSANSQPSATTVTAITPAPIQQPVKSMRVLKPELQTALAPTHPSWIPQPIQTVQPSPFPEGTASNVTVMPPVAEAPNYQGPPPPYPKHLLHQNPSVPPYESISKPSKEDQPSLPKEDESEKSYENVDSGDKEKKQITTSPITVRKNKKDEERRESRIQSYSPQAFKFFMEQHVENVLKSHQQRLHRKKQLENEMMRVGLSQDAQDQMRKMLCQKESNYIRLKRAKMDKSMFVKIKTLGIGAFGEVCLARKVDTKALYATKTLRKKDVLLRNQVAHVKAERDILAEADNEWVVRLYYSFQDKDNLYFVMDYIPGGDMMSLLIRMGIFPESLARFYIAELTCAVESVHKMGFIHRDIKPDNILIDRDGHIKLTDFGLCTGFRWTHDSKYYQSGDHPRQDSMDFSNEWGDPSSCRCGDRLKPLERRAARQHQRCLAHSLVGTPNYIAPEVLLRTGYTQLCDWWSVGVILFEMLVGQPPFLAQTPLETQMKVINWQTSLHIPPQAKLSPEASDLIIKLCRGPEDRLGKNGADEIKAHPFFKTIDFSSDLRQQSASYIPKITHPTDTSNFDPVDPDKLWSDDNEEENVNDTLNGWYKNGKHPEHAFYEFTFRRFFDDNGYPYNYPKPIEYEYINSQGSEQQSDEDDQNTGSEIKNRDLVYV
Mitogen-activated protein kinase 1 (Homo sapiens), sequence (P28482 whole entry): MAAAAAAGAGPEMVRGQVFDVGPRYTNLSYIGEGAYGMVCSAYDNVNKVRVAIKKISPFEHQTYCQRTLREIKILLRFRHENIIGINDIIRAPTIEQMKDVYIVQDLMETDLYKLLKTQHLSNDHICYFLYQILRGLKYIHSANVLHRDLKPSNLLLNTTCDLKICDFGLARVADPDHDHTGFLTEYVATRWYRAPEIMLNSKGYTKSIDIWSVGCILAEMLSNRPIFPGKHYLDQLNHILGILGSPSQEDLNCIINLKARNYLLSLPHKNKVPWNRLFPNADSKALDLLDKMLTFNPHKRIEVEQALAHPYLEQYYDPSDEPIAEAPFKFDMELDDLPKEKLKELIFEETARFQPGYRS
Mitogen-activated protein kinase kinase kinase 20 (Homo sapiens), sequence (Q9NYL2 2-800 limits assumed): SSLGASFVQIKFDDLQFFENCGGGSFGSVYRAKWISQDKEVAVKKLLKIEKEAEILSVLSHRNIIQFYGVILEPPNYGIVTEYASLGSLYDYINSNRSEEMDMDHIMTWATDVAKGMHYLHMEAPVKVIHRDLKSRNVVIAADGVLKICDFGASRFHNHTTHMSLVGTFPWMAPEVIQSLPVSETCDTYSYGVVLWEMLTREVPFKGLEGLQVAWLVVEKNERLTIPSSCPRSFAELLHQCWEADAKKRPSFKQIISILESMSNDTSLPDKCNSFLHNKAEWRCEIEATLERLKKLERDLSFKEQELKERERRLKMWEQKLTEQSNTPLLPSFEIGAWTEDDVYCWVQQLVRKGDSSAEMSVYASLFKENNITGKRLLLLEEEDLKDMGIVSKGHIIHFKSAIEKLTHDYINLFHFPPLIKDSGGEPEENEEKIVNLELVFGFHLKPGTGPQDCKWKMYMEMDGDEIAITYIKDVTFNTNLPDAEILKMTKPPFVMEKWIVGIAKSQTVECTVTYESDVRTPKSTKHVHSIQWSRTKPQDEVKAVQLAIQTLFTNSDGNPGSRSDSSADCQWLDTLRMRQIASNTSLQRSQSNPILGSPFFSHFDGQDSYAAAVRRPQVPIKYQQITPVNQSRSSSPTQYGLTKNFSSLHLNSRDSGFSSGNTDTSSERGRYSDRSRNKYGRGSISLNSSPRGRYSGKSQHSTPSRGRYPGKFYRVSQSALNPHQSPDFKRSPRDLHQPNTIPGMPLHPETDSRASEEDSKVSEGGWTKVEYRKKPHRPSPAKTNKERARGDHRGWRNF
Serine/threonine-protein kinase OSR1 (Homo sapiens), sequence (O95747 2-527 limits assumed): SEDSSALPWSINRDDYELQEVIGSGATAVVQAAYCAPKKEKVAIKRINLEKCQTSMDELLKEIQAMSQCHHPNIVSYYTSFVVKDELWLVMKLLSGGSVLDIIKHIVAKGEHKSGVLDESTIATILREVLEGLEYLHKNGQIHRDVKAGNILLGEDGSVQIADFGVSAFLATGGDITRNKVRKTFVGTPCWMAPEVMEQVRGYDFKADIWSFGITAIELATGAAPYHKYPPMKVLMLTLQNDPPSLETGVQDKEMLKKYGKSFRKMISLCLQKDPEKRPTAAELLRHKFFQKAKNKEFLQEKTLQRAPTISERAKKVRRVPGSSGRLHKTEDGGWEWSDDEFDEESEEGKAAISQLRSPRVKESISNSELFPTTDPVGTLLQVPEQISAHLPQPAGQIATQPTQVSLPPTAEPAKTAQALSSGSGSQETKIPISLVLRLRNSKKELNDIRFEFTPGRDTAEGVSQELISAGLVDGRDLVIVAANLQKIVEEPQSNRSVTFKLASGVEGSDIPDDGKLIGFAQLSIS
SRSF protein kinase 3 (Homo sapiens), sequence (Q9UPE1 whole entry, the tested form may be a part): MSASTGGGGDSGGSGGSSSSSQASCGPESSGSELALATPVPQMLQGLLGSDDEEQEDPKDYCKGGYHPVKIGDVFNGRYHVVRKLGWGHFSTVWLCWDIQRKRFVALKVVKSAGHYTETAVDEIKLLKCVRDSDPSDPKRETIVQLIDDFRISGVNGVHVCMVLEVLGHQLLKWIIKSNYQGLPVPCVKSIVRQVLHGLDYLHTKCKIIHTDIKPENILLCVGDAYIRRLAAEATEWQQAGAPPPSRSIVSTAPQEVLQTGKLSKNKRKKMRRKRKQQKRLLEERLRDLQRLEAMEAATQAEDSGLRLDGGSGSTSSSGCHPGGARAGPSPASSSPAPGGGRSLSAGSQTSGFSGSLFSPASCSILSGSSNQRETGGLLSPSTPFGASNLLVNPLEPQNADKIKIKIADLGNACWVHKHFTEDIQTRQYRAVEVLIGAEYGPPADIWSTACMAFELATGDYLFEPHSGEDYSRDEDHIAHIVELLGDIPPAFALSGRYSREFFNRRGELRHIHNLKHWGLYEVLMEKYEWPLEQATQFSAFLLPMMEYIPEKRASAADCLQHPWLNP
Serine/threonine-protein kinase MAK (Homo sapiens), sequence (P20794 whole entry): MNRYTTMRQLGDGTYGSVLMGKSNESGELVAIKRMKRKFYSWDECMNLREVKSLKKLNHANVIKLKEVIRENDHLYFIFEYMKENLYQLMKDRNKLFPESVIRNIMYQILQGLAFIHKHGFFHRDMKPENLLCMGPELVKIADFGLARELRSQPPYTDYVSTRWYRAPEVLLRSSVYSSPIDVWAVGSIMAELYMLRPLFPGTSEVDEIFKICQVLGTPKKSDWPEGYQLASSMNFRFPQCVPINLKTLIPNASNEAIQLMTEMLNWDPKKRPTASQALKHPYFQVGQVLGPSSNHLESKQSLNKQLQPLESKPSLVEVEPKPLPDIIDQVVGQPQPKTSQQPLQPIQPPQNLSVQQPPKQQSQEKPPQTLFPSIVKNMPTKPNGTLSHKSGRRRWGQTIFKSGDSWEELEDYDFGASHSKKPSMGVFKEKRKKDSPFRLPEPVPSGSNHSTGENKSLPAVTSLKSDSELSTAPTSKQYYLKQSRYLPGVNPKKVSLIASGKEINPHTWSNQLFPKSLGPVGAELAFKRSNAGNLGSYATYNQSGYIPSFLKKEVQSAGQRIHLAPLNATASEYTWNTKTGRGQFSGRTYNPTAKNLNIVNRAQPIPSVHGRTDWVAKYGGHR

CCCCN(CCCC)C(=O)CN1C[C@@H](c2cc(OC)c3c(c2)OCO3)[C@H](C(=O)O)[C@H]1CC(C)(C)CCC [A-545]
inactive: residual activity [1] 92.3% | residual activity [2] 96.3% | inhibition [3] -2.98% | residual activity [4] 100% | residual activity [5] 100% | residual activity [6] 93.3% | residual activity [7] 95.4% | residual activity [8] 91.3% | residual activity [9] 100% | residual activity [10] 65.5% | residual activity [11] 98.1% | residual activity [12] 100% | residual activity [13] 86.7% | residual activity [14] 74.8% | residual activity [15] 74.4% | residual activity [16] 91% | residual activity [17] 96.6% | residual activity [18] 84.8% | residual activity [19] 100% | residual activity [20] 80.3% | residual activity [21] 97.1% | residual activity [22] 90.6% | residual activity [23] 99.3% | residual activity [24] 94% | residual activity [25] 95.4% | residual activity [26] 90.5% | residual activity [27] 100% | residual activity [28] 94.9% | residual activity [29] 75.2% | residual activity [30] 93.4% | residual activity [31] 100% | residual activity [32] 82.1% | residual activity [33] 95.9% | residual activity [34] 89.2% | inhibition [35] 7.84% | residual activity [36] 98.3% | residual activity [37] 100% | inhibition [38] 41.3% | residual activity [39] 100% | residual activity [40] 96.6% | residual activity [41] 77.3% | residual activity [42] 96.7% | residual activity [43] 89.5% | residual activity [44] 99% | residual activity [45] 100%

CCCCN(CCCC)C(=O)CN1C[C@H](c2cc(OC)c3c(c2)OCO3)[C@@H](C(=O)O)[C@@H]1CC(C)(C)CCC [ABT-546]
inactive: residual activity [1] 90.4% | residual activity [2] 73.1% | inhibition [3] 2.64% | residual activity [4] 100% | residual activity [5] 100% | residual activity [6] 100% | residual activity [7] 72.8% | residual activity [8] 85.2% | residual activity [9] 100% | residual activity [10] 100% | residual activity [11] 100% | residual activity [12] 100% | residual activity [13] 100% | residual activity [14] 60.5% | residual activity [15] 100% | residual activity [16] 88.6% | residual activity [17] 93.8% | residual activity [18] 95.4% | residual activity [19] 100% | residual activity [20] 100% | residual activity [21] 100% | residual activity [22] 100% | residual activity [23] 100% | residual activity [24] 89.5% | residual activity [25] 71.1% | residual activity [26] 70% | residual activity [27] 100% | residual activity [28] 92.3% | residual activity [29] 100% | residual activity [30] 100% | residual activity [31] 100% | residual activity [32] 100% | residual activity [33] 72.2% | residual activity [34] 80.7% | inhibition [35] 8.83% | residual activity [36] 100% | residual activity [37] 100% | inhibition [38] 48.5% | residual activity [39] 100% | residual activity [40] 100% | residual activity [41] 100% | residual activity [42] 100% | residual activity [43] 57.5% | residual activity [44] 92.8% | residual activity [45] 100%
